Assays:
[1] = test system: ONGHEPA1 cells; assay: TGF-β-induced fibrosis of ONGHEPA1 cells (microscope); assay type: cell-based, mouse; details: for inhibition of the progress of fibrosis (differentiation into myofibroblasts): TGF-β 5 ng/mL plus 50 μM compound, 24 hr
Source text: The liver tissue was separated from C57BL/6 mice and a single-cell suspension thereof was made, and immortalized cells were obtained through continuous culture and were confirmed to be mesenchymal stem cells (MSC) of HSC via RT-PCR (Reverse Transcription Polymerase Chain Reaction) using MC (Immunohistochemistry) and FACS (Fluorescence-Activated Cell Sorting). This cell line was called “ONGHEPA1”, and was deposited with the Korean Collection for Type Cultures (KCTC) of the Korea Research Institute of Bioscience and Biotechnology and assigned accession number KCTC13086BP.
Using such properties of HSC, the fibrotic characteristics of ONGHEPA1 were measured. To induce fibrosis, TGF-β (transforming growth factor beta) was added, and the morphologies of the cells were observed after 6 hr, 12 hr, 24 hr, and 48 hr. Consequently, fibrosis was confirmed to progress considerably after 24 hr and further progress after 48 hr (A of FIG. 6).
While ONGHEPA1 cells were incubated, they were treated with TGF-β to induce fibrosis, and 50 μM of eupatilin was added to the culture medium.
In order to more clearly evaluate the effect of eupatilin as above, changes were measured when ONGHEPA1 cells were first treated with eupatilin, washed to remove eupatilin and then treated with TGF-β to induce fibrosis. […] This means that eupatilin is directly associated with the course of fibrosis to thus inhibit the progress of fibrosis.
On the contrary, changes were measured when ONGHEPA1 cells were first treated with TGF-β to induce fibrosis, washed to remove TGF-β and then treated with eupatilin. […] Even when fibrosis was already progressed, eupatilin was able to restore the cells to their original normal condition.
In order to more clearly evaluate whether eupatilin was able to restore the cells that already undergone fibrosis to normal cells, changes were measured when ONGHEPA1 cells were treated with TGF-β for 24 hr to induce complete fibrosis and then treated with eupatilin. […] This means that fibrosis that has progressed considerably can be effectively treated using eupatilin.
The effects of various chromone derivatives other than eupatilin on fibrosis were measured in the same manner as in Example 3-3. While ONGHEPA1 cells were incubated, fibrosis was induced by TGF-β, and a chromone derivative was added at a concentration of 50 μM to the culture medium.

[2] = test system: Col1 (type 1 Collagen), Vim (Vimentin) and Twist; assay: Real-time RT-PCR of EMT regulators in ONGHEPA1 cells; assay type: cell-based, mouse; details: TGF-β + eupatilin 50 μM, 24 hr
Experimental: Also in order to evaluate whether the effect of eupatilin described above is due to the influence of eupatilin on EMT, for the cells incubated for 24 hr in each test group, the extent of expression of […], for example, Col1 (type 1 Collagen), Vim (Vimentin) and Twist, was measured through real-time RT-PCR.

`COc1ccc(-c2cc(=O)c3c(O)c(OC)c(O)cc3o2)cc1OC` [eupatilin, 2-(3,4-dimethoxyphenyl)-5,7-dihydroxy-6-methoxy-chromone] was tested, and the “inhibition of the progress of fibrosis (differentiation into myofibroblasts)” value [1] was “fibrosis were not observed”, the “inhibition of the progress of fibrosis (differentiation into myofibroblasts)” value ([1]; listed as Chemical Formula 2) was “superior fibrosis-inhibiting effects” and the “restoration of cells after TGF-β pretreatment” value ([1]; TGF-β 1 to 12 hr, washed, then eupatilin 50 μM 24 hr) was “normal cells such as a control group were maintained”. For the same compound, the “restoration of completely fibrotic cells” value ([1]; TGF-β 24 hr, washed, then eupatilin 50 μM and TGF-β 24 hr) was “restore the cells in which fibrosis has been completely induced by TGF-β to their normal condition”, the “inhibition of the progress of fibrosis after pretreatment” value ([1]; eupatilin 2 to 6 hr, washed, then TGF-β 24 hr) was “the progress of fibrosis was not inhibited” and the “influence on normal HSC” value ([1]; eupatilin pretreatment, washed, then TGF-β) was “no influence on normal HSC”. The “expression of Col1 (type 1 Collagen)” value [2] was “inhibited”, the “expression of Twist” value [2] was “inhibited” and the “expression of Vim (Vimentin)” value [2] was “inhibited”.
